Changes are numbered by the printed parent chain.
Columns and labels:
Conditions in all cases: pH 7.5
[1] = target: Tyrosyl-DNA phosphodiesterase 2 [E242G,S244A,Q278R,I281T,K282R,R316G,P318T,Y321C] (Mus musculus, UniProt Q9JJX7, E242G/I281T/K282R/P318T/Q278R/R316G/S244A/Y321C); experiment: Recombinant TDP2 Assay
Protocol: (§1) TDP2 reactions were carried out as described previously23 with the following modifications.

[2] = target: T1, Tyrosyl-DNA phosphodiesterase 2 [E242G,S244A,Q278R,I281T,K282R,R316G,P318T,Y321CH323L] (Mus musculus, UniProt Q9JJX7, E242G/I281T/K282R/P318T/Q278R/R316G/S244A/Y321CH323L); experiment: Recombinant TDP2 Assay
T1 sequence (Q9JJX7 whole entry): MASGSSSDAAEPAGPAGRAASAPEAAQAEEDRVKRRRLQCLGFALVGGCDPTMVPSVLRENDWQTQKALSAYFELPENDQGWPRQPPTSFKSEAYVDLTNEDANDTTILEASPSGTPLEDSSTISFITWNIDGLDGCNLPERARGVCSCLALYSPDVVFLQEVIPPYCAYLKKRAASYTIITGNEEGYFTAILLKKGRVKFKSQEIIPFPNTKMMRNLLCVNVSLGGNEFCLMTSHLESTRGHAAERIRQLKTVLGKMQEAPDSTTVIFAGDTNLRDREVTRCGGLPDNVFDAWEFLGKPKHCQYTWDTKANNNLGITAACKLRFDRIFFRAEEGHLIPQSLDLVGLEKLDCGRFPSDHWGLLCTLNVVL
Protocol: as §1

[3] = target: T2, Tyrosyl-DNA phosphodiesterase 2 (Mus musculus, UniProt Q9JJX7); experiment: Recombinant TDP2 Assay
T2 sequence (Q9JJX7 whole entry): T1 sequence (Q9JJX7 whole entry) with G242E, A244S, R278Q, T281I, R282K, G316R, T318P, C321Y, L323H
Protocol: as §1

[4] = target: T3, Tyrosyl-DNA phosphodiesterase 2 (Homo sapiens, UniProt O95551); experiment: Recombinant TDP2 Assay
T3 sequence (O95551 whole entry): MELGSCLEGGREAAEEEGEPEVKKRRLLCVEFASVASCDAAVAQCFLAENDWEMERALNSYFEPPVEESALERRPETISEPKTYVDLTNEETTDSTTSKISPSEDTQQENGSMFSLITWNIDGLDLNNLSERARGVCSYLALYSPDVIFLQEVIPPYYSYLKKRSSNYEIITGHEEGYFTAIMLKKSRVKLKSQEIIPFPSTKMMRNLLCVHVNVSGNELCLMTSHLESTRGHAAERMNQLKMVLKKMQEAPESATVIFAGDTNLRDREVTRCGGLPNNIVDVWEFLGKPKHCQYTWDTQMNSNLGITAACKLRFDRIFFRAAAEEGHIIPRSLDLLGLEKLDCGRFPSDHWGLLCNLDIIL
Protocol: as §1

[5] = target: T3, Tyrosyl-DNA phosphodiesterase 2; experiment: TDP2 Assays with Whole Cell Extracts
Protocol: Cell pellets were then resuspended in 100 uL of CelLytic M cell lysis reagent (SIGMA-Aldrich C2978). After 15 min on ice, lysates were centrifuged at 12 000g for 10 min, and supernatants were transferred to a new tube. Protein concentrations were determined using a Nanodrop spectrophotometer (Invitrogen), and whole cell extracts were stored at -80 °C. […] Reactions were terminated and samples analyzed.

Tyrosyl-DNA phosphodiesterase 2 [E242G,S244A,Q278R,I281T,K282R,R316G,P318T,Y321C], sequence (Q9JJX7 whole entry E242G/S244A/Q278R/I281T/K282R/R316G/P318T/Y321C): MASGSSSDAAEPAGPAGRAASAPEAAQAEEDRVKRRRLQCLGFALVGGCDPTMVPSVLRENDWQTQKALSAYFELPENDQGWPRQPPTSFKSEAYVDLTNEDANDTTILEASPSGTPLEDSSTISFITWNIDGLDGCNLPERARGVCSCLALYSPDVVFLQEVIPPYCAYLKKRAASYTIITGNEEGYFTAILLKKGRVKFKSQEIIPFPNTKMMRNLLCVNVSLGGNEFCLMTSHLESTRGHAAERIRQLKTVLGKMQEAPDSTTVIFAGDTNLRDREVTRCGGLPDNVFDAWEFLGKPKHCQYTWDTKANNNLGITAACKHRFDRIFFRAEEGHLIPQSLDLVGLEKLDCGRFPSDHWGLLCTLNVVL

Compound | IC50 [1] [µM] | IC50 [2] [µM] | IC50 [3] [µM] | IC50 [4] [µM] | IC50 [5] [µM]
N#Cc1ccc2cc3c(=O)[nH]c(=O)nc-3n(-c3ccc(O)cc3)c2c1 | 1.1 | 0.17 | > 111 | – | –
O=c1nc2n(-c3ccc(O)cc3)c3cc(Cl)ccc3cc-2c(=O)[nH]1 | 35 | 4 | > 111 | 3.9 | 2.3

Reference: BindingDB's records for doi:10.1021/acschembio.5b01047 (National Institutes of Health, 2016)
